2 molecules from US20240109896A1, “FGFR KINASE INHIBITOR AND USE THEREOF” (YA THERAPEUTICS INC, priority 2021, published 2024) can be followed below.

For one data set, the target named is T1, hERG potassium channel (Homo sapiens, UniProt Q12809).
T1 construct: host or cells: HEK293
The data set is described as follows: Determination of potassium channel blockade of hERG (whole-cell patch clamp, Qpatch). The settings on record: HEK293 cells stably expressing hERG, tail current, 24° C. In kind it is cell-based. On the procedure:
Example 59: Determination of Potassium Channel Blockade of hERG
The experimental methods are in follows:
extracellular fluid: 140 mM NaCl, 3.5 mM KCl, 1 mM MgCl2, 2 mM CaCl2, 10 mM D-glucose, 10 mM HEPES, 1.25 mM NaH2PO4, pH=7.40
ISE Internal Solution: 20 mM KCl, 115 mM K-aspartate, 1 mM MgCl2, 5 mM EGTA, 10 mM HEPES, 2 mM Na2-ATP, pH=7.2
Cell culture: HEK293 cell line with stable expression of hERG potassium channel was used, and hERG potassium channel cells were purchased from Creacell (catalog number: A-0320). It was cultured in DMEM medium containing 10 fetal bovine serum and 0.8 mg/mL G418 at 37° C. and a carbon dioxide concentration of 5%. Take out the old medium and wash once with PBS, then add 2 mL of TrypLE™ Express solution and incubate at 37° C. for about 1 min. When the cell detaches from the bottom of the dish, add approximately 5 mL of complete medium pre-warmed at 37° C. Gently pipette the cell suspension with a pipette to detach the aggregated cells. […]
Each drug concentration is set for two administrations for at least 5 minutes. The tested compound and the compound-free external fluid acts on the cells sequentially from low to high concentration, and each cell uses the current detected in the compound-free exo-liquid as its own control group, and the detection of the two cells is repeated independently. […]
For orientation: Block of hERG is tested as a sign of cardiac risk.

A further data set deals with FGFR4 (Homo sapiens, UniProt P22455). The data set is described as follows: In vitro activity inhibition test for kinase FGFR4.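 Note: caliper mobility shift assay of FGFR4 kinase activity, compounds tested as 10-point 4-fold dilution series with 0.5% DMSO final.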
Sequence of FGFR4 (P22455 22-802): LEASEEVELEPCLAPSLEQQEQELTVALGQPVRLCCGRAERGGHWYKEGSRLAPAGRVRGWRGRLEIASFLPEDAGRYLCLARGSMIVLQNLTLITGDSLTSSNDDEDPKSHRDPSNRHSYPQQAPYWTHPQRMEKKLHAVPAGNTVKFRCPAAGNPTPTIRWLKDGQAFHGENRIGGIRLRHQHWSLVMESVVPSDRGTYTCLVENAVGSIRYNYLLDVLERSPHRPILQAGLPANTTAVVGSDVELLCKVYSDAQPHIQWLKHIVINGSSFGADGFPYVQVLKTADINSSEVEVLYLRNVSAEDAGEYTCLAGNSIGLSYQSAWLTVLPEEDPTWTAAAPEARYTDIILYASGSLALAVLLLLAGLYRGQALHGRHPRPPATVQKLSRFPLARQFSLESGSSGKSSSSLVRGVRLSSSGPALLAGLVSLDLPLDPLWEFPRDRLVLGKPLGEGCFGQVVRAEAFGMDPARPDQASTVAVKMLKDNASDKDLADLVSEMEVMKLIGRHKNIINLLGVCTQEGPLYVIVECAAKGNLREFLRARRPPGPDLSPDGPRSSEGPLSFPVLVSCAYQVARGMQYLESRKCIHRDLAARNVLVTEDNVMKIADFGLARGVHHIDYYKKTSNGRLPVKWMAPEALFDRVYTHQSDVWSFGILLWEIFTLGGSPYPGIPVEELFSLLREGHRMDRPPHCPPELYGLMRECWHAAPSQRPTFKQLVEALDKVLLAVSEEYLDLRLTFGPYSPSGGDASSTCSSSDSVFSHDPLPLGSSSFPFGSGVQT
The next data set has as its system Hep3B cells. Nature of the data set: Human hepatoma cell Hep3B survival test (CellTiter-Glo). The format is cell-based. The settings on record: Homo sapiens, treated 72 hours, read-out: inhibitory activity on Hep3B cell proliferation IC50. On the procedure: The Hep3B cell line of human liver cancer is derived from ATCC. Cells are supplemented with McCoy's 5A medium and additionally added fetal bovine serum (IOFBS). Cells are kept in the medium at 37° C., humidity at 95%, and carbon dioxide at 500. Hep3B cells were seeded in 96-well plates at a density of 3500 cells per well with a cell suspension volume of 90 μL per well and cultured at 37° C. in a cell culture incubator containing 500 CO2. […] The cells were then placed in a 37° C. incubator and treated with compounds for 72 hours.
On the technique in general: Cellular ATP, detected with luciferase, serves as a proxy for viable cell number.

The target of the next data set is FGFR2 (Homo sapiens, UniProt P21802). The data set is described as follows: In vitro activity inhibition test for kinase FGFR2. The format is biochemical. The conditions noted are these: kinase assay, 25° C.; read-out: Inhibition of separase IC50 (nM) FGFR2.
Sequence of FGFR2 (P21802 22-821): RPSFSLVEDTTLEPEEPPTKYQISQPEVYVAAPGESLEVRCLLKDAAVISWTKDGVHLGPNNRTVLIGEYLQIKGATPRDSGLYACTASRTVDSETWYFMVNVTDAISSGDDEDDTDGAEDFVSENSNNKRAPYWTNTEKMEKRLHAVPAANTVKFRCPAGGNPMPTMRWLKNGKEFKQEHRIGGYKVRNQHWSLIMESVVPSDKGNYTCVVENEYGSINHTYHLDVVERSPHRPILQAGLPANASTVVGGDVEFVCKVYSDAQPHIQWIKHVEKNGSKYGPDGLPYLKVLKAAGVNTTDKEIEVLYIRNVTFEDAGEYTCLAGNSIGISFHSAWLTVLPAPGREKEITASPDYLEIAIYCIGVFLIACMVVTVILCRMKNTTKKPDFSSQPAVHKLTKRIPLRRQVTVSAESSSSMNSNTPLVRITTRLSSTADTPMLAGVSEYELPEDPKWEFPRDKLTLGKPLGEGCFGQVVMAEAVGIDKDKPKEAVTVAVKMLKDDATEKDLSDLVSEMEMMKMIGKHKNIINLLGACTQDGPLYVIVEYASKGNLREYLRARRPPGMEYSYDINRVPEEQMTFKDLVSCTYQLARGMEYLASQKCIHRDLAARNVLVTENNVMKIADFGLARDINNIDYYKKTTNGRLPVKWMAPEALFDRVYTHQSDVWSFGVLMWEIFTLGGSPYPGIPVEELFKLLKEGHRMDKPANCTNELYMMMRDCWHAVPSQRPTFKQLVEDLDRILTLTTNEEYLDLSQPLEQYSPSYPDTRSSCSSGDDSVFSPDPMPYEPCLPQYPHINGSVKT
Data set [1] has as its system human gastric cancer cells (SNU-16). The data set is described as follows: Proliferation inhibition of human gastric cancer cells SNU-16 (CellTiter-Glo). In kind it is cell-based. The settings on record: 72 h, SNU-16, 3 days. On the procedure:
(§1) Using the CellTiter-Glo<TM>Live Cell Assay Kit, The inhibitory effect of the test compound on the proliferation of human gastric cancer cells (SNU-16) and FGFR3 high expression and FGFR3 fusion of FGFR3-TACC3 fused human bladder cancer cells (RT4) was determined. Among them, RT4 medium is added with fetal bovine serum and McCoy's 5A medium with a final concentration of 10%.
(§2) Test steps: SNU-16 and RT4 cells that have reached 80% cell confluency were digested by trypsin, centrifuged and re-suspended for counting, and 3500 and 6000 cells/mL of SNU-16 and RT4 cell suspensions were prepared with medium, respectively. Add a 96-well cell culture plate (90 μL/well) and place in a cell culture incubator containing 5% CO2 at 37° C. […] The diluted compound stock solution was further diluted with SNU-16 and RT4 medium and the diluted mixture was transferred to the corresponding cell plates, respectively. […] Mix and centrifuge and then place in a cell culture incubator containing 5% CO2 for 3 days at 37° C. Take out the 96-well cell culture plate and add CellTiterGlo (CTG, Chemiluminescent Cell Viability Assay) reagent (100 L/well. Mix and centrifuge, and then incubate for 10 min at room temperature. After gentle shaking, the absorbance at 450 nm wavelength was determined on the SpectraMax M5 Reader, and the absorbance at 650 nm was used as a reference (i.e., 450 nm absorbance −650 nm absorbance) to calculate the suppression.

Another data set deals with FGFR1 (Homo sapiens, UniProt P11362). The data set is described as follows: In vitro activity inhibition test for kinase FGFR1.
Sequence of FGFR1 (P11362 22-822): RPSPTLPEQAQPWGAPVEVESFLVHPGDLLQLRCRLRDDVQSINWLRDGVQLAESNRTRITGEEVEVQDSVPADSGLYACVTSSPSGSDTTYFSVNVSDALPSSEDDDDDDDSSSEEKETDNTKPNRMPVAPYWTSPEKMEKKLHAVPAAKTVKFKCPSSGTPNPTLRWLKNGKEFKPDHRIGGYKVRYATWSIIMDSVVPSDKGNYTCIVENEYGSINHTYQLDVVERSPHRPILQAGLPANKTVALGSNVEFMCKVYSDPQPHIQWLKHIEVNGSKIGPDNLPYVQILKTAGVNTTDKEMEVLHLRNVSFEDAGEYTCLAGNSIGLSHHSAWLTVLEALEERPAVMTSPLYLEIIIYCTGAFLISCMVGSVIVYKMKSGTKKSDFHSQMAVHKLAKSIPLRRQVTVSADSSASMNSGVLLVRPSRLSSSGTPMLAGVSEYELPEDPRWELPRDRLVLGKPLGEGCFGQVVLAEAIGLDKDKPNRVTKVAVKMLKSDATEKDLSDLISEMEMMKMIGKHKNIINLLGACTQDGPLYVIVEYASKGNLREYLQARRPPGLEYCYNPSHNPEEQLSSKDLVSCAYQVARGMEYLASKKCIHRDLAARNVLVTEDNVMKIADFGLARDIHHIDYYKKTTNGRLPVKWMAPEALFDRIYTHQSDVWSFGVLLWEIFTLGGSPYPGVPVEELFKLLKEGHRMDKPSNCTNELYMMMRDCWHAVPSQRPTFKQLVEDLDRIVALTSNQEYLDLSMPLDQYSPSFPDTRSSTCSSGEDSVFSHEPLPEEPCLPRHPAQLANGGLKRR
Another data set deals with FGFR3 (Homo sapiens, UniProt P22607). Nature of the data set: In vitro activity inhibition test for kinase FGFR3.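 Note: FGFR3 kinase activity read by Caliper mobility shift assay, compounds run as 10-point 4-fold dilution series, final DMSO 0.5%.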
Sequence of FGFR3 (P22607 23-806): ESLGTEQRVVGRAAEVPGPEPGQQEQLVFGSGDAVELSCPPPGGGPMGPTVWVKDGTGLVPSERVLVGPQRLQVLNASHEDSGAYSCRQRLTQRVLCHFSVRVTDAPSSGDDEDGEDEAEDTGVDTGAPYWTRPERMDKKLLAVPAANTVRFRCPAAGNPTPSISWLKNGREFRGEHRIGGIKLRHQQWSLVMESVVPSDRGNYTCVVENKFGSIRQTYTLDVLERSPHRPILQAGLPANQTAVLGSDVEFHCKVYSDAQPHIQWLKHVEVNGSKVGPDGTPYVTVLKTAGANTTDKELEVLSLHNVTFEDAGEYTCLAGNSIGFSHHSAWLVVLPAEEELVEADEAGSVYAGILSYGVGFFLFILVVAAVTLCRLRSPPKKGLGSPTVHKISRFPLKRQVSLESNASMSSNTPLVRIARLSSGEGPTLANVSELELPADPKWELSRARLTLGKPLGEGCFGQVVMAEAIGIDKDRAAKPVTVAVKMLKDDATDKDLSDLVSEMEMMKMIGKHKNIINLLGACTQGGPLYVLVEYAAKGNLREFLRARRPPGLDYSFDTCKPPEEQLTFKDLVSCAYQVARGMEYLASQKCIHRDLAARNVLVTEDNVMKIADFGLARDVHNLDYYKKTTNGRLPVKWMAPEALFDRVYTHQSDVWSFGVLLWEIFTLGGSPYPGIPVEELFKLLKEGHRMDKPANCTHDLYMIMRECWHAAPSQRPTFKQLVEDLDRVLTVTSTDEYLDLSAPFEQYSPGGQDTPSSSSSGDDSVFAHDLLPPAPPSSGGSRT
For data set [2], the system named is human bladder cancer cells (RT4). Nature of the data set: Proliferation inhibition of human bladder cancer cells RT4 (CellTiter-Glo). The format is cell-based. The settings on record: Homo sapiens, RT-4, 72 h, RT4, 3 days. On the procedure:
as §1, §2

Molecules are shown by their SMILES.

T1 sequence (Q12809 whole entry): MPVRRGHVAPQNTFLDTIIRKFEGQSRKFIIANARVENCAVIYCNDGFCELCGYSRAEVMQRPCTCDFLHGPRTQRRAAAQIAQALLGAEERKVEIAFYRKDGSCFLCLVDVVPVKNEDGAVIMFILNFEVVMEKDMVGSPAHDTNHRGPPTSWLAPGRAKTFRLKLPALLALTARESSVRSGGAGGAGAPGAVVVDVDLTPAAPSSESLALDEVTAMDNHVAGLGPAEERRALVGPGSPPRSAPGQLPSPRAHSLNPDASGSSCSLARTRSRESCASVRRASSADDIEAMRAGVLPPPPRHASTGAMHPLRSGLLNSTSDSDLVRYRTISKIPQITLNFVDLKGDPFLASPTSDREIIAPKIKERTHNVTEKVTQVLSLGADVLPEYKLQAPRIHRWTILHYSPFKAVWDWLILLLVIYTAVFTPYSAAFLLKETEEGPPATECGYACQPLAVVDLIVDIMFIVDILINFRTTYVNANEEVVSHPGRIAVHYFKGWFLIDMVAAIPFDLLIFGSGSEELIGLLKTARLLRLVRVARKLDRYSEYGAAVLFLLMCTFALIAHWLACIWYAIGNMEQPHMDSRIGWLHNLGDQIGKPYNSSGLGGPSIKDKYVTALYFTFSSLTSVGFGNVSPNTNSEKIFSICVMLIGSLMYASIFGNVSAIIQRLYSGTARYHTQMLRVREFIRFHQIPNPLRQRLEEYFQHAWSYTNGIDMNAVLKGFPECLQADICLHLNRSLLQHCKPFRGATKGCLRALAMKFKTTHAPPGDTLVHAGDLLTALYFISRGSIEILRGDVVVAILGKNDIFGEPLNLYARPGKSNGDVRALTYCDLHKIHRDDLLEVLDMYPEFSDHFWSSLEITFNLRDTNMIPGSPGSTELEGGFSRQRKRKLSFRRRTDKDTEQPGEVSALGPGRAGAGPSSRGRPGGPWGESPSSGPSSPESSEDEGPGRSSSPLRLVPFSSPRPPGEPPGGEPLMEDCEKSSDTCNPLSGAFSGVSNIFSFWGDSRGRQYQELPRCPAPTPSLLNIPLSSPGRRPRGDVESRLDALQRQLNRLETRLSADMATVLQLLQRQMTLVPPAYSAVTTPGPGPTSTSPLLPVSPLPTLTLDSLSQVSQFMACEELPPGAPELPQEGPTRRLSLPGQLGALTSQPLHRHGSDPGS
Experimental for FGFR1: (§3) In Vitro Activity Inhibition Test for Kinases FGFR1, FGFR2, FGFR3 and FGFR4
(§4) The activity of FGFR1, FGFR2, FGFR3 and FGFR4 protein kinases was determined by Caliper mobility shift assay. Perform a 4-fold gradient dilution from a working concentration of 0.2 mM in DMSO, diluting 10 concentrations. Add 2 μL of compound to 78 μL of 1× compound buffer. There were 10 points each for the negative control and the positive control. Shake the board on the rocker for 20 min. […] The final concentration of DMSO was 0.5%.
Experimental for FGFR3: as §3, §4
Experimental for FGFR4: as §3, §4

Take `C=CC(=O)N1CC[C@H](n2cc(-c3cc4cc(C)cc(OC)c4s3)c3c(N)n[nH]c(=O)c32)C1` [Compound 38, (S)-1-(1-acryloylpyrrolidin-3-yl)-4-amino-3-(7-methoxy-5-methylbenzo[b]thiophen-2-yl)-1,6-dihydro-7H-pyrrolo[2,3-d]pyridazin-7-one]: the “inhibition effect on the hERG channel” value at hERG potassium channel was “moderate inhibitory effect”. In addition, the IC50 against FGFR4 is below 10 nM; in the data set on Hep3B cells, below 10 nM; on FGFR2, below 10 nM; in data set [1], below 0.015 nM; on FGFR1, below 10 nM; at FGFR3, below 10 nM. The IC50 in data set [2] was determined as 3.4 nM.
Turning to `C=CC(=O)N1CC[C@H](n2nc(C#Cc3c(F)c(OC)cc(OC)c3F)c3c(N)n[nH]c(=O)c32)C1` [Compound 28, (S)-1-(1-acryloylpyrrolidin-3-yl)-4-amino-3-((2,6-difluoro-3,5-dimethoxyphenyl)ethynyl)-1,6-dihydro-7H-pyrazolo[3,4-d]pyridazin-7-one], at hERG potassium channel, the “inhibition effect on the hERG channel” value is “weak or no inhibition effect”. Also, the IC50 is below 10 nM against FGFR4; below 10 nM on FGFR2; 0.025 nM in data set [1]; below 10 nM at FGFR1; below 10 nM on FGFR3; 1.3 nM in data set [2].
